Laboratory results reported in US5869486A, “Fused pyrimidines and pyriazines as pharmaceutical compounds” (Ono Pharmaceutical Co., Ltd., priority 1995, dated 1999).
pIC50: −log10 of the molar value.

Target: cGMP-PDE (Homo sapiens, UniProt O76074)
Assay: Inhibitory effect on cGMP-PDE
Assay type: biochemical
Conditions: PDE IC isolated from human platelets; substrate 3H-cGMP; tested as 2HCl salt (2, 2(3)), CH3SO3H salt (2(5), 2(7), 5, 6(1)), free base (4, 7, 8)

pIC50 | Compound
7.00 | c1ccc(CNc2nc(-n3ccnc3)nc3c2CSCC3)cc1 [Example 2(5)]
7.62 | c1cn(-c2nc3c(c(NCc4ccc5c(c4)OCO5)n2)CSCC3)cn1 [Example 2(7)]
6.42 | O=C(O)C1CCN(c2nc3c(c(NCc4ccc5c(c4)OCO5)n2)CSCC3)CC1 [Example 4]

The remaining lines, values behind:

Compound | pIC50
c1ccc(CNc2nc(-n3ccnc3)nc3c2SCCC3)cc1 [Example 2(3)] | 7.00
Cc1csc2nc(-n3ccnc3)nc(NCc3ccccc3)c12 [Example 2, 4-benzylamino-2-(1-imidazolyl)-5-methylthieno[2,3-d]pyrimidine dihydrochloric acid] | 6.90
[O-][S+]1CCCc2nc(-n3ccnc3)nc(NCc3ccccc3)c21 (stereo not shown) [Example 5] | 5.49
O=S1(=O)CCc2nc(-n3ccnc3)nc(NCc3ccccc3)c2C1 [Example 6(1)] | 6.42
c1ccc(CNc2cc(-c3ccccc3)nc3ncnn23)cc1 [Example 7] | 5.51
c1ccc(CNc2cc(-c3ccccc3)nn3cnnc23)cc1 [Example 8] | 6.03

System: TXA2 synthetase
Assay: Inhibitory effect on TXA2 synthetase (TXB2 synthesis in A23187-stimulated whole blood)
Assay type: cell-based, Male Wistar rats
Conditions: at 10 μM; rat heparinized whole blood, Ca ionophore A23187, TXB2 by EIA; CH3SO3H salt
Experimental: Male Wistar rats were starved overnight. Five hundreds microliter of heparinized (10 U/mL) whole blood was collected from abdominal aorta using polyethylene syringe (needle: 22 or 26 G). The blood freshly drawn from animal was preincubated with 5 μL of test compound at 37° C. Five minutes later, 2.5 μL of 6 mM of Ca ionophore A23187 (final concentration of 30 μM) was added into tube, and incubation mixture was further incubated for 15 min. The reaction was terminated by centrifugation of tubes at 12,000 rpm for 2 min. TXB2 content in the supernatant was determined by EIA as follows.
One milliliter of 0.5M glycine-HCl buffer (pH 3.2) was added to 100 μL of sample. The samples were mixed well and centrifuged at 1,700 G for 10 min. at 4° C. The extracted supernatant was applied to a SEP-PAK (registered Trade Mark) C18 cartridge (Waters Assoc.). After washing with 10 mL of distilled water followed by 10 mL each of 15% ethanol and petroleum ether, the sample was eluted with 3 mL of ethyl acetate. The ethyl acetate fraction was evaporated to dryness under gentle N2 stream and the residue was dissolved in EIA buffer (final volume of 1 mL) following the addition of 300 μL of 0.01M NaHCO3 --NaOH buffer (pH 10.0). EIA for TXB2 was carried out according to a legend attached to the kit (Chyman Chemical Co., Inc.). Overall recovery of TXB2 in this extraction procedure was 90%. […]

Compound | Inhibitory activity on TXA2 synthetase [%]
c1cn(-c2nc3c(c(NCc4ccc5c(c4)OCO5)n2)CSCC3)cn1 [Example 2(7)] | 63
